According to US8017398B2, “Method for assaying protein-protein interaction” (Life Technologies Corporation, priority 2003, dated 2011):

Assays:
ADRB2 = target: T1, ADRB2 (Homo sapiens, UniProt P07550); assay: chemiluminescence β-galactosidase reporter assay, ADRB2-tTA + ARRB2-TEV-NIa protease, clone 41 cells; type: cell-based; details: ADRB2-tTA low efficiency cleavage site
T1 construct: to produce three, full length constructs encoding fusion proteins; expressed in transfected cells; host or cells: HEK-293T and clone 41 (HEK-293T derivative)

[1] = target: T2, human Type I Interferon Receptor (Homo sapiens, UniProt P17181+P48551); assay: IFNAR1-GAL4-NF-κB + IFNAR2.2-TEV luciferase reporter assay, CHO-K1 cells; type: cell-based, hamster; details: control pcDNA3 plasmid
T2 construct: expressed in transfected cells; host or cells: CHO-K1
T2 sequence (P17181 28-557): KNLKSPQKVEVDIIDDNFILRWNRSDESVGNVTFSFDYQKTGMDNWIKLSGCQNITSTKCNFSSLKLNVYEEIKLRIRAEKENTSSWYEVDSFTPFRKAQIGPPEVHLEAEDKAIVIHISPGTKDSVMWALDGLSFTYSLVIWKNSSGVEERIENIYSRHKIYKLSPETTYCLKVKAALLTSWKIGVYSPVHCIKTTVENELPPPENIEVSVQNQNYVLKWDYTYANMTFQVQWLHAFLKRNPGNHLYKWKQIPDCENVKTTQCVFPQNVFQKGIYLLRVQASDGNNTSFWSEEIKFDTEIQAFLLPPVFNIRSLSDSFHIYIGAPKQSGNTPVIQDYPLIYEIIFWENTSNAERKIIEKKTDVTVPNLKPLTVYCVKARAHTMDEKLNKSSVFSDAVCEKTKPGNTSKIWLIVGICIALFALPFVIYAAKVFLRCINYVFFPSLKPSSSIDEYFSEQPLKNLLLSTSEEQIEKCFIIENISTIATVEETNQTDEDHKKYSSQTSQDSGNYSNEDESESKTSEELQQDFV
T2 sequence (P48551 27-515): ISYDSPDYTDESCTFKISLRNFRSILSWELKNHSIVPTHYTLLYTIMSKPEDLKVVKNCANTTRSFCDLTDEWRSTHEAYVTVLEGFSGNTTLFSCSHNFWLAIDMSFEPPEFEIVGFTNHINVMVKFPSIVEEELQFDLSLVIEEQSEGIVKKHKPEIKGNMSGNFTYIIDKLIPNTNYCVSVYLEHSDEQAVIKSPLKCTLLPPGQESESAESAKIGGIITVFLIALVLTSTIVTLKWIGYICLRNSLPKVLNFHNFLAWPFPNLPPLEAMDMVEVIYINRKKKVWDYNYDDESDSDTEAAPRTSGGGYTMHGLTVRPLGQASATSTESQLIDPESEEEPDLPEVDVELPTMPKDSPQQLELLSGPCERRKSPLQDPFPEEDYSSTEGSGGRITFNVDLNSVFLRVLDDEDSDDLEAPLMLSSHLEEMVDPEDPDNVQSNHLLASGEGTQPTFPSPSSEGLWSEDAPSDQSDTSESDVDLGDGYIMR

T1 sequence (P07550 whole entry, the tested form may be a part): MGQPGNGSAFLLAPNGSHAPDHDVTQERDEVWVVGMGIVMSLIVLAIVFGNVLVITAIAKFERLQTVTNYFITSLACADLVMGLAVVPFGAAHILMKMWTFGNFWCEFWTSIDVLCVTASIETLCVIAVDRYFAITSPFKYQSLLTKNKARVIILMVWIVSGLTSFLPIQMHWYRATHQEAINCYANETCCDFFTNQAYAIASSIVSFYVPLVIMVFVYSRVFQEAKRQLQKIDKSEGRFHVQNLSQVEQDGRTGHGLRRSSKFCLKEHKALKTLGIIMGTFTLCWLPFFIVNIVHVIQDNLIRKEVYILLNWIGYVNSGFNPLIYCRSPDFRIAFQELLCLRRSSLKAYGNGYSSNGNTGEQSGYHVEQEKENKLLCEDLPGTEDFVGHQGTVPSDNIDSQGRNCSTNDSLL

effect on reporter gene activity in cells transfected with the reporter and control plasmids [1]	Molecule	induction of reporter gene activity by agonist of another GPCR (P2Y1, P2Y2) (ADRB2)
–	Nc1ncnc2c1ncn2[C@@H]1O[C@H](COP(=O)(O)OP(=O)(O)OP(=O)(O)O)[C@@H](O)[C@H]1O [ATP]	Stimulation of another GPCR pathway was irrelevant
no effect	IFN-α	–
